Counter-ions that a name gives are not always drawn. Bounds are passed on as bounds.

In the experiment the test system is BRCA-1 silenced HeLa cells (HeLa shBRCA1-GFP). Put plainly: Proliferation assay in BRCA-1 silenced HeLa cells. It is filed as cell-based. The note with it: Homo sapiens; BRCA1 silenced HeLa cells, 168 hours; read-out: CC50 in the BRCA1 silenced HeLa cells. How it is done: Proliferation Assay in BRCA-1 Silenced HeLa Cells
Compounds of the present invention were also tested in an anti-proliferative assay in matched pair BRCA1 wt and BRCA1-(shRNA) HeLa cells.
The assay is based on the ability of living cells to convert a redox dye (resazurin) into a fluorescent end product (resofurin). The amount of resofurin produced is directly proportional to the cell number.
HeLa shBRCA1-GFP—These are HeLa cells transduced at an MOI of 100 with a Lentivirus containing a shRNA against BRCA-1 and an expression cassette for GFP. BRCA-1 silencing is more than 80% as assessed by Taqman analysis and the cells stably express GFP.
HeLa THM-GFP—These are HeLa cells transduced at an MOI of 100 with a control vector not expressing any shRNA.
• Seed 300 cell/well in 96 wells viewplate black in 90 ul culture Medium*: • Incubate 4 hours at 37° C., 5% CO2 • Add 10 ul/well of 10× compound (5% DMSO in H2O) • Incubate for 168 hours at 37° C., 5% CO2 • Add 10 ul of Celltiter Blue solution (Promega, G8081) pre-diluted 1:1 in PBS1× • Incubate the mixture for 45′ at 37° C., 5% CO2 • Incubate 15′ at RT in the dark • Read plate at fluorimeter ex: 550 nm; em: 590 nm *Culture Medium: DMEM (GIBCO, 41966-029), 10% FCS (GIBCO, 10106-169), 0.1 mg/ml Penicillin-Streptomycin (GIBCO, 15140-114), 2 mM L-Glutamine (GIBCO, 3042190)
The CC50 is the concentration giving 50% cytotoxicity. With `Cc1c(Cc2ccc(F)c(C(=O)N3CC(=O)N4[C@H](CCC[C@H]4C)C3)c2)n[nH]c(=O)c1C` (single isomer, unassigned) [86 (TT2)], the CC50 is 50 to 500 nM.
The figure for `Cc1c(Cc2ccc(F)c(C(=O)N3CCN(C4COc5ccccc5C4)C(=O)C3)c2)n[nH]c(=O)c1C` (stereo not drawn) [Example 98, 6-(3-{[4-(3,4-dihydro-2H-chromen-3-yl)-3-oxopiperazin-1-yl]carbonyl}-4-fluorobenzyl)-4,5-dimethyl-3-oxo-2,3-dihydropyridazin-1-ium trifluoroacetate] is under 50 nM.
Then `Cc1c(Cc2ccc(F)c(C(=O)N3CCN([C@@H]4CCOC4)C(=O)C3)c2)n[nH]c(=O)c1C` [Example 112, 6-[4-Fluoro-3-({3-oxo-4-[(3R)-tetrahydrofuran-3-yl]piperazin-1-yl}carbonyl)benzyl]-4,5-dimethylpyridazin-3(2H)-one], with under 5000 nM; and `Cc1c(Cc2ccc(F)c(C(=O)N3CCN(c4ccccc4C(F)(F)F)C(=O)C3)c2)n[nH]c(=O)c1C` [Example 15, 6-[4-Fluoro-3-({3-oxo-4-[2-(trifluoromethyl)phenyl]piperazin-1-yl}carbonyl)benzyl]-4,5-dimethyl-3-oxo-2,3-dihydropyridazin-1-ium trifluoroacetate], with under 50 nM.
The figure for `Cc1c(Cc2ccc(F)c(C(=O)N3CC(=O)N(C4CCOC4)C(C)C3)c2)n[nH]c(=O)c1C` (stereo not drawn) [Example 130, 6-(4-Fluoro-3-{[3-methyl-5-oxo-4-(tetrahydrofuran-3-yl)piperazin-1-yl]carbonyl}benzyl)-4,5-dimethylpyridazin-3(2H)-one trifluoroacetate] is 50 to 500 nM.
For the molecule `Cc1c(Cc2ccc(F)c(C(=O)N3CCN(c4cccc5ccccc45)C(=O)C3)c2)n[nH]c(=O)c1C` [Example 43, 3-(4-Fluoro-3-{[4-(1-naphthyl)-3-oxopiperazin-1-yl]carbonyl}benzyl)-4,5-dimethyl-6-oxo-1,6-dihydropyridazin-1-ium trifluoroacetate], the CC50 was under 50 nM.
Then `Cc1c(Cc2ccc(F)c(C(=O)N3CC(=O)N([C@H]4CCOC4)[C@@H](C)C3)c2)n[nH]c(=O)c1C` (single isomer, unassigned) [75 (II4B)], with under 50 nM.
As for `CC[C@@H]1CN(C(=O)c2cc(Cc3n[nH]c(=O)c(C)c3C)ccc2F)CC(=O)N1C1CCC1` [Example 180, 6-(3-{[(3R)-4-Cyclobutyl-3-ethyl-5-oxopiperazin-1-yl]carbonyl}-4-fluorobenzyl)-4,5-dimethylpyridazin-3(2H)-one], the CC50 was under 5000 nM.
Consider `O=C(c1cc(Cc2cc(C(F)(F)F)c(=O)[nH]n2)ccc1F)N1CCN(C2CCCCC2)C(=O)C1` [Example 27, 6-{3-[(4-Cyclohexyl-3-oxopiperazin-1-yl)carbonyl]-4-fluorobenzyl}-3-oxo-4-(trifluoromethyl)-2,3-dihydropyridazin-1-ium trifluoroacetate], for which the CC50 is 50 to 500 nM.
Then `Cc1c(Cc2ccc(F)c(C(=O)N3CC(=O)N(C4CCC(F)(F)CC4)C(C)C3)c2)n[nH]c(=O)c1C` (stereo not drawn) [Example 126, 6-(3-{[4-(4,4-Difluorocyclohexyl)-3-methyl-5-oxopiperazin-1-yl]carbonyl}-4-fluorobenzyl)-4,5-dimethylpyridazin-3(2H)-one trifluoroacetate], with under 50 nM; and `COc1cccc(N2CCN(C(=O)c3cc(Cc4n[nH]c(=O)c(C)c4C)ccc3F)CC2=O)c1` [Example 22, 6-(4-Fluoro-3-{[4-(3-methoxyphenyl)-3-oxopiperazin-1-yl]carbonyl}benzyl)-4,5-dimethylpyridazin-3(2H)-one trifluoroacetate], with 50 to 500 nM.
Then `Cc1c(Cc2ccc(F)c(C(=O)N3CCN(C4CCCOC4)C(=O)C3)c2)n[nH]c(=O)c1C` (stereo not drawn) [Example 47, 6-(4-Fluoro-3-{[3-oxo-4-(tetrahydro-2H-pyran-3-yl)piperazin-1-yl]carbonyl}benzyl)-4,5-dimethyl-3-oxo-2,3-dihydropyridazin-1-ium trifluoroacetate], with 50 to 500 nM.
In the case of `Cc1c(Cc2ccc(F)c(C(=O)N3CCN(c4cc(Cl)cc(Cl)c4)C(=O)C3)c2)n[nH]c(=O)c1C` [Example 42, 3-(3-{[4-(3,5-Dichlorophenyl)-3-oxopiperazin-1-yl]carbonyl}-4-fluorobenzyl)-4,5-dimethyl-6-oxo-1,6-dihydropyridazin-1-ium trifluoroacetate], the CC50 is under 50 nM.
`CCN1CCN(C(=O)c2cc(Cc3n[nH]c(=O)c(C(F)(F)F)c3C)ccc2F)CC1=O` [Example 105, 3-{3-[(4-Ethyl-3-oxopiperazin-1-yl)carbonyl]-4-fluorobenzyl}-4-methyl-6-oxo-5-(trifluoromethyl)-1,6-dihydropyridazin-1-ium trifluoroacetate]: the CC50 is under 50 nM.
On to `Cc1c(Cc2ccc(F)c(C(=O)N3CCN(Cc4ccc(F)cc4)C(=O)C3)c2)n[nH]c(=O)c1C` [Example 8, 3-(4-Fluoro-3-{[4-(4-fluorobenzyl)-3-oxopiperazin-1-yl]carbonyl}benzyl)-4,5-dimethyl-6-oxo-1,6-dihydropyridazin-1-ium trifluoroacetate], for which the CC50 is under 5000 nM.
Regarding `Cc1c(Cc2ccc(F)c(C(=O)N3CCN(C4Cc5ccccc5C4)C(=O)C3)c2)n[nH]c(=O)c1C` [Example 71, 6-(3-{[4-(2,3-Dihydro-1H-inden-2-yl)-3-oxopiperazin-1-yl]carbonyl}-4-fluorobenzyl)-4,5-dimethyl-3-oxo-2,3-dihydropyridazin-1-ium trifluoroacetate], the CC50 fell in the range of 50 to 500 nM.
Then `CCC(CC)N1CCN(C(=O)c2cc(Cc3n[nH]c(=O)c(C)c3C)ccc2F)CC1=O` [Example 167, 6-(3-{[4-(1-Ethylpropyl)-3-oxopiperazin-1-yl]carbonyl}-4-fluorobenzyl)-4,5-dimethylpyridazin-3(2H)-one], with under 50 nM; and `Cc1c(Cc2ccc(F)c(C(=O)N3CC(=O)N(c4cc(Cl)ccc4F)[C@H](C)C3)c2)n[nH]c(=O)c1C` [Example 205, 6-(3-{[(3R)-4-(5-Chloro-2-fluorophenyl)-3-methyl-5-oxopiperazin-1-yl]carbonyl}-4-fluorobenzyl)-4,5-dimethylpyridazin-3(2H)-one], with under 50 nM.
In the case of `Cc1c(Cc2ccc(F)c(C(=O)N3CCN([C@H](c4ccccc4)C(F)F)C(=O)C3)c2)n[nH]c(=O)c1C` [Example 123, 6-(3-{[4-(2,2-difluoro-1R-phenylethyl)-3-oxopiperazin-1-yl]carbonyl}-4-fluorobenzyl)-4,5-dimethyl-3-oxo-2,3-dihydropyridazin-1-ium trifluoroacetate], the CC50 is 50 to 500 nM.
For `Cc1c(Cc2ccc(F)c(C(=O)N3CCN(CCc4ccccc4)C(=O)C3)c2)n[nH]c(=O)c1C` [Example 21, 6-(4-Fluoro-3-{[3-oxo-4-(2-phenylethyl)piperazin-1-yl]carbonyl}benzyl)-4,5-dimethylpyridazin-3(2H)-one trifluoroacetate], the CC50 fell in the range of 50 to 500 nM.
Take `Cc1cc(C)cc(N2CCN(C(=O)c3cc(Cc4n[nH]c(=O)c(C)c4C)ccc3F)CC2=O)c1` [Example 23, 6-(3-{[4-(3,5-Dimethylphenyl)-3-oxopiperazin-1-yl]carbonyl}-4-fluorobenzyl)-4,5-dimethylpyridazin-3(2H)-one trifluoroacetate]: the CC50 fell in the range of 50 to 500 nM.

The values above are taken from patent US8268827B2, “Pyridazinone derivatives as PARP inhibitors” (Istituto di Ricerche di Biologia Molecolare P. Angeletti …, priority 2007, dated 2012).
